We go through one compound from US5834518A, “Use of N,N'-dibenzylethylenediamine-N,N'-diacetic acid derivatives as depigmenting agents” (L'Oreal, priority 1996, dated 1998).

Series [1] deals with Human melanocytes. As to the kind of experiment: cytotoxicity to cultured human melanocytes. The class given is cell-based. As to conditions: 0.1 mM, 0.25 mM, 0.5 mM and 0.75 mM in human melanocyte culture.
In series [2] the target is T1, human melanocyte tyrosinase (Homo sapiens, UniProt P14679).
T1 construct: Human melanocytes are prepared and cultured; endogenous in cells; host or cells: cultured human melanocytes
T1 sequence (P14679 19-529): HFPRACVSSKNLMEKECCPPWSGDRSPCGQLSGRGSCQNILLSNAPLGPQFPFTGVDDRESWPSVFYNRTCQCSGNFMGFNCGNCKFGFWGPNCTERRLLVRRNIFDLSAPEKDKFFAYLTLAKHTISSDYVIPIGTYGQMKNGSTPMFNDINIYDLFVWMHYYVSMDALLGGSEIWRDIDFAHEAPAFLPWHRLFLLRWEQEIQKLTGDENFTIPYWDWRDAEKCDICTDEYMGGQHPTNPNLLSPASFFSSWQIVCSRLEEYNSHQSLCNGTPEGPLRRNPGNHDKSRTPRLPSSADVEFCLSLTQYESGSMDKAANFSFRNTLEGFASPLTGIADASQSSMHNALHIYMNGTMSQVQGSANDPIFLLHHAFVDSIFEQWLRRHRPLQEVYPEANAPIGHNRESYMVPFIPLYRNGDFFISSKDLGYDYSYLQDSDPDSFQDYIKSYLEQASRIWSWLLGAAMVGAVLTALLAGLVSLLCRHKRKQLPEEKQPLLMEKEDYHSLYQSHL
Nature of the series: dopa-oxidase activity of human melanocyte tyrosinase after culturing melanocytes with compound. It counts as cell-based. The note with it: human melanocytes cultured three days, 5 mM L-dopa, absorbance 475 nm, read-out: Percentage of inhibition. As to the method:
The effectiveness of the compound of formula (1) as a tyrosinase inhibitor is determined by evaluating its effect on the dopa-oxidase activity of human melanocyte tyrosinase. The compound tested is N,N'-di(3-hydroxybenzyl)ethylenediamine-N,N'-diacetic acid of formula (II): [drawing 5]
Human melanocytes are prepared and cultured and then introduced into media containing different, non-cytotoxic concentrations of the compound of formula (II) (0.1 mM, 0.25 mM, 0.5 mM and 0.75 mM). After three days, the melanocytes are "trypsinized" in a mixture of trypsin/0.05% EDTA/0.02% in a phosphate buffer (50 mM at pH 6.8), washed three times in the phosphate buffer containing 1% (w/v) Triton x-100 and subjected to ultrasound. After centrifugation, samples are taken and mixed with 5 mM L-dopa in phosphate buffer. The tyrosinase activity is evaluated by spectrophotometry by measuring the increase in the absorbance at 475 nm because of the formation of dopachrome from 5 mM dope. The absorbance is read on a microplate reader at 25° C. for 60 min.
The activity of the cellular tyrosinase is measured relative to a standard range prepared with commercial tyrosinase.

For the compound `O=C(O)CN(CCN(CC(=O)O)Cc1cccc(O)c1)Cc1cccc(O)c1` [compound of formula (II), N,N'-di(3-hydroxybenzyl)ethylenediamine-N,N'-diacetic acid], the “cytotoxicity of the concentrations used” value in series [1] is on record as “non-cytotoxic”. Further, the inhibition (usually the share of the control response that was lost under treatment) at 100 µM in series [2] (0.1 mM compound) came out at 19%. Also, the inhibition at 250 µM in series [2] (0.25 mM compound) amounted to 30%. Moreover, the inhibition at 500 µM in series [2] (0.5 mM compound) turned out to be 33%. The inhibition at 750 µM in series [2] (0.75 mM compound) came to 42%.
